Laboratory results as given in patent US7699995B2, “Water treatment method” (priority 2006, dated 2010).
Values after ≈ are worked out from the molar mass of the structure shown. Read-outs that look alike come from different tables or passages of the source.

Legend:
[1] = test system: Mycobacterium chelonae (ATCC 14472); test: High resolution MIC test, pure culture, 1/10x TSB; assay type: cell-based; conditions: M. chelonae, 24 hours at 37° C.
Protocol: (§1) The lowest concentration of microbicide required to inhibit bacteria was determined by a high resolution MIC test. Varying amounts of each microbicide were added to media in a 96-well microtiter plate. The media used for the MIC tests was 10% Trypicase Soy Broth ( 1/10× TSB). […] serial dilutions were performed on a Biomek 2000 Workstation to obtain a range of closely spaced concentrations of microbicides. A cell suspension of stationary phase microorganisms, adjusted to provide 10^6 colony forming units (CFU)/mL in each well for bacteria was added to the microtiter plate. The microtiter plates were incubated for 24 hours at 30° C. for Mycobacterium immunogenum and 37° C. for Mycobacterium chelonae. The presence or absence of microbial growth was determined by measuring the turbidity in each well using a Thermomax microplate reader set at an absorbance of 650 nm. The lowest concentration of compound in which no growth was observed was considered the MIC value for the microbicide. The MIC value for each microbicide was determined from the average of four determinations for bacteria.
(§2) Bacterial strains tested included Mycobacterium chelonae (ATCC 14472) and Mycobacterium immunogenum (ATCC 700505). Mycobacterial cultures were grown overnight at 30° C. (M. immunogenum) or 37° C. (M. chelonae), in a rotary shaking bath in Middlebrook […] with Middlebrook enrichment. A 1:20 dilution of the overnight culture was made into the appropriate test media and inoculated to give a final concentration of 10^6 to 10^7 CFU/ml.

[2] = test system: Mycobacterium immunogenum (ATCC 700505); test: High resolution MIC test, pure culture, 1/10x TSB; assay type: cell-based; conditions: M. immunogenum, 24 hours at 30° C.
Protocol: as §1, §2

Rhodotorula rubra #156 = test: MIC at pH 7.1 or pH 9.0, half strength TSB; assay type: cell-based; conditions: three days; for MIC: Rhodotorula, 72 h, read-out: Minimum Inhibitory Concentration
Protocol: (§3) Minimum inhibitory concentration (MIC) studies were conducted to determine the lowest level of biocide required to inhibit growth of bacteria and fungi. Tests were conducted in 96-well microtiter plates. Biocides were added to growth media in the plates and serially diluted to obtain a range of concentrations. Tests were conducted in one-half strength trypticase soy broth (TSB; adjusted to pH 7.1 or pH 9.0). Bacteria and fungi were added to samples at 10^6 colony forming units per ml and incubated at 30° C. for three days. MIC values were determined visually on a growth no-growth basis.

[3] = test system: Pseudomonas aeruginosa #13; test: MIC at pH 7.1 or pH 9.0, half strength TSB; assay type: cell-based; conditions: three days; for MIC: Pseudomonas aeruginosa, 72 h, read-out: Minimum Inhibitory Concentration
Protocol: as §3

Alcaligenes faecalis #93 = test: MIC at pH 7.1 or pH 9.0, half strength TSB; assay type: cell-based; conditions: three days; for MIC: Alcaligenes faecalis, 72 h, read-out: Minimum Inhibitory Concentration
Protocol: as §3

[4] = test system: Pseudomonas pseudoalcaligenes #15; test: MIC at pH 7.1 or pH 9.0, half strength TSB; assay type: cell-based; conditions: three days; for MIC: Ectopseudomonas oleovorans, 72 h, read-out: Minimum Inhibitory Concentration
Protocol: as §3

[5] = test system: Alcaligenes xylosoxydans #95; test: MIC at pH 7.1 or pH 9.0, half strength TSB; assay type: cell-based; conditions: three days; for MIC: Achromobacter xylosoxidans, 72 h, read-out: Minimum Inhibitory Concentration
Protocol: as §3

Aspergillus sp. #120 = test: MIC at pH 7.1 or pH 9.0, half strength TSB; assay type: cell-based; conditions: three days; for MIC: Aspergillus, 72 h, read-out: Minimum Inhibitory Concentration
Protocol: as §3

[6] = Stability in pH 9 buffer solution at 70° C. (HPLC); conditions: for loss of active ingredient: day 56
Protocol: pH 9 buffer containing 0.069 M boric acid, 0.017 M citric acid, 0.066 M sodium phosphate was prepared in distilled water. Biocide was dosed into the pH 9 buffer solution and stored at 70° C. in a heat block. The samples were examined for active ingredient concentration at the time points after 5 hours, and 1, 3, 7, 23, 30, 35 and 56 days. Initial biocide doses were 166 ppm MI, 199 ppm BIT and 150 ppm BNPD.
The samples were evaluated for active ingredient concentration via High Pressure Liquid Chromatography. Samples were taken from the heating blocks and allowed to cool to room temperature for 30 minutes. The samples were then diluted 1:20 in deionized water by adding 9.5 ml of deionized water to 0.5 grams of the samples in a 25 ml glass sample vial. The samples were mixed for 15 seconds and transferred to HPLC sample vials for analysis.

[7] = Stability with oxidizing and reducing agents at pH 7 and pH 9 (HPLC); assay type: physicochemical
Protocol: Oxidizing agents (2 mM) included hydrogen peroxide (H2O2; 68 ppm), t-butyl hydrogen peroxide (t-BHP; 180 ppm), and potassium persulfate (K2O8S2; 540 ppm). Reducing agents (2 mM) included iso-ascorbic acid (IAA; 352 ppm) and sodium bisulfite (NaHSO3; 208 ppm). Biocides were tested at 1 mM concentrations, representing 115 ppm MI and […].
The pH 7.0 buffer contained 0.00426% monopotassium phosphate plus 0.019% magnesium chloride hexahydrate. The pH 9.0 buffer contained 0.0046 M hydrochloric acid plus 0.013 M borax. Stock solutions of the redox agents were prepared and added to aliquots of each buffer to give 2 mM concentrations. The biocides were then added to give 1 mM concentrations. The samples were stored at 25° C. and analyzed for biocide level by HPLC at 0, 2 and 8 days.

[8] = test system: Mycobacterium chelonae (ATCC 14472); test: MBC test, transfer from MIC plates to fresh media; assay type: cell-based; conditions: M. chelonae, no survivors after 2 days in fresh media
Protocol: as §2
(§4) MBC tests were conducted by transferring samples from the MIC test samples into fresh media and observing for growth of the culture. Growth was determined as above. In this test using Biomek 2000 Workstation, 10 μl samples taken from the 96-well MIC plates were placed in […] of fresh growth media to determine the number of surviving organisms for the same gradient of biocide concentrations. These plates were incubated and read in the same fashion as the MIC plates.

[9] = test system: Mycobacterium immunogenum (ATCC 700505); test: MBC test, transfer from MIC plates to fresh media; assay type: cell-based; conditions: M. immunogenum, no survivors after 2 days in fresh media
Protocol: as §2, §4

[10] = K-persulfate 2 mM, pH 7, 25° C.
[11] = K-persulfate 2 mM, pH 9, 25° C.
[12] = Na bisulfite 2 mM, pH 7, 25° C.
[13] = Na bisulfite 2 mM, pH 9, 25° C.

For `O=c1[nH]sc2ccccc12` [BIT, 1,2-benzisothiazolin-3-one, reference compound], the “Minimum Inhibitory Concentration” value [1] was 63 ppm active, the “Minimum Inhibitory Concentration” value [2] was 113 ppm active and the “Minimum Inhibitory Concentration” value (Rhodotorula rubra #156; pH 7.1, 30° C.) was under 6.3 ppm. The “Minimum Inhibitory Concentration” value (Rhodotorula rubra #156; pH 9.0, 30° C.) was 100 ppm, the “Minimum Inhibitory Concentration” value ([3]; pH 7.1, 30° C.) was 50 ppm and the “Minimum Inhibitory Concentration” value ([3]; pH 9.0, 30° C.) was 200 ppm. The “Minimum Inhibitory Concentration” value (Alcaligenes faecalis #93; pH 7.1, 30° C.) was under 1.6 ppm, the “Minimum Inhibitory Concentration” value (Alcaligenes faecalis #93; pH 9.0, 30° C.) was 6.3 ppm and the “Minimum Inhibitory Concentration” value ([4]; pH 7.1, 30° C.) was 12.5 ppm. The “Minimum Inhibitory Concentration” value ([4]; pH 9.0, 30° C.) was 25 ppm, the “Minimum Inhibitory Concentration” value ([5]; pH 7.1, 30° C.) was 6.3 ppm and the “Minimum Inhibitory Concentration” value ([5]; pH 9.0, 30° C.) was 25 ppm. The “Minimum Inhibitory Concentration” value (Aspergillus sp. #120; pH 7.1, 30° C.) was 50 ppm, the “Minimum Inhibitory Concentration” value (Aspergillus sp. #120; pH 9.0, 30° C.) was 400 ppm and the “Percent Remaining after: 5 hr” value [6] was 98%. The “Percent Remaining after: 1 day” value [6] was 97%, the “Percent Remaining after: 3 day” value [6] was 94% and the “Percent Remaining after: 7 day” value [6] was 92%. The “Percent Remaining after: 23 day” value [6] was 86%, the “Percent Remaining after: 30 day” value [6] was 71% and the “Percent Remaining after: 35 day” value [6] was 63%. The “Percent Remaining after: 56 day” value [6] was 68%, the “loss of active ingredient” value [6] was 32% and the “Percent Remaining after: 0” value [6] was 100%. The “% Remaining after 2 Days” value ([7]; H2O2 2 mM, pH 7, 25° C.) was 39%, the “% Remaining after 8 Days” value ([7]; H2O2 2 mM, pH 7, 25° C.) was 15% and the “% Remaining after 2 Days” value ([7]; H2O2 2 mM, pH 9, 25° C.) was 8%. For the same molecule, the “% Remaining after 8 Days” value ([7]; H2O2 2 mM, pH 9, 25° C.) was 0%, the “% Remaining after 2 Days” value ([7]; IAA 2 mM, pH 7, 25° C.) was 89% and the “% Remaining after 8 Days” value ([7]; IAA 2 mM, pH 7, 25° C.) was 86%. The “% Remaining after 2 Days” value ([7]; IAA 2 mM, pH 9, 25° C.) was 77%, the “% Remaining after 8 Days” value ([7]; IAA 2 mM, pH 9, 25° C.) was 75% and the “% Remaining after 2 Days” value [7, 10] was 0%. The “% Remaining after 8 Days” value [7, 10] was 0%, the “% Remaining after 2 Days” value [7, 11] was 0% and the “% Remaining after 8 Days” value [7, 11] was 0%. For the same molecule, the “% Remaining after 2 Days” value [7, 12] was 38%, the “% Remaining after 8 Days” value [7, 12] was 28% and the “% Remaining after 2 Days” value [7, 13] was 82%. For the same molecule, the “% Remaining after 8 Days” value [7, 13] was 77%, the “% Remaining after 2 Days” value ([7]; no redox agent, pH 7, 25° C.) was 100% and the “% Remaining after 8 Days” value ([7]; no redox agent, pH 7, 25° C.) was 100%. For the same molecule, the “% Remaining after 2 Days” value ([7]; no redox agent, pH 9, 25° C.) was 100%, the “% Remaining after 8 Days” value ([7]; no redox agent, pH 9, 25° C.) was 100% and the “% Remaining after 2 Days” value ([7]; t-BHP 2 mM, pH 7, 25° C.) was 43%. For the same molecule, the “% Remaining after 8 Days” value ([7]; t-BHP 2 mM, pH 7, 25° C.) was 8%, the “% Remaining after 2 Days” value ([7]; t-BHP 2 mM, pH 9, 25° C.) was 38% and the “% Remaining after 8 Days” value ([7]; t-BHP 2 mM, pH 9, 25° C.) was 6%. For the same molecule, the “Minimum Biocidal Concentration” value [8] was 75 ppm active and the “Minimum Biocidal Concentration” value [9] was 188 ppm active.

With `Cn1sccc1=O` [MI, 2-methyl-4-isothiazolin-3-one] the “Minimum Inhibitory Concentration” value [1] was 15 ppm active, the “Minimum Inhibitory Concentration” value [2] was 50 ppm active and the MIC (Rhodotorula rubra #156; pH 7.1, 30° C.) was 25 µg/mL (≈ 217 µM). For the same molecule, the MIC (Rhodotorula rubra #156; pH 9.0, 30° C.) was 25 µg/mL (≈ 217 µM), the MIC ([3]; pH 7.1, 30° C.) was 12.5 µg/mL (≈ 109 µM) and the MIC ([3]; pH 9.0, 30° C.) was 6.3 µg/mL (≈ 54.7 µM). It also gave an MIC (Alcaligenes faecalis #93; pH 7.1, 30° C.) of 3.2 µg/mL (≈ 27.8 µM), an MIC (Alcaligenes faecalis #93; pH 9.0, 30° C.) of 6.3 µg/mL (≈ 54.7 µM) and an MIC ([4]; pH 7.1, 30° C.) of 25 µg/mL (≈ 217 µM). It also gave an MIC ([4]; pH 9.0, 30° C.) of 25 µg/mL (≈ 217 µM), an MIC ([5]; pH 7.1, 30° C.) of 12.5 µg/mL (≈ 109 µM) and an MIC ([5]; pH 9.0, 30° C.) of 25 µg/mL (≈ 217 µM). For the same molecule, the MIC (Aspergillus sp. #120; pH 7.1, 30° C.) was 50 µg/mL (≈ 434 µM), the MIC (Aspergillus sp. #120; pH 9.0, 30° C.) was 50 µg/mL (≈ 434 µM) and the “Percent Remaining after: 5 hr” value [6] was 96%. The “Percent Remaining after: 1 day” value [6] was 96%, the “Percent Remaining after: 3 day” value [6] was 96% and the “Percent Remaining after: 7 day” value [6] was 93%. For the same molecule, the “Percent Remaining after: 23 day” value [6] was 95%, the “Percent Remaining after: 30 day” value [6] was 101% and the “Percent Remaining after: 35 day” value [6] was 93%. The “Percent Remaining after: 56 day” value [6] was 102%, the “loss of active ingredient” value [6] was “no loss” and the “Percent Remaining after: 0” value [6] was 100%. For the same molecule, the “% Remaining after 2 Days” value ([7]; H2O2 2 mM, pH 7, 25° C.) was 100%, the “% Remaining after 8 Days” value ([7]; H2O2 2 mM, pH 7, 25° C.) was 100% and the “% Remaining after 2 Days” value ([7]; H2O2 2 mM, pH 9, 25° C.) was 94%. For the same molecule, the “% Remaining after 8 Days” value ([7]; H2O2 2 mM, pH 9, 25° C.) was 88%, the “% Remaining after 2 Days” value ([7]; IAA 2 mM, pH 7, 25° C.) was 100% and the “% Remaining after 8 Days” value ([7]; IAA 2 mM, pH 7, 25° C.) was 96%. For the same molecule, the “% Remaining after 2 Days” value ([7]; IAA 2 mM, pH 9, 25° C.) was 105%, the “% Remaining after 8 Days” value ([7]; IAA 2 mM, pH 9, 25° C.) was 103% and the “% Remaining after 2 Days” value [7, 10] was 90%. For the same molecule, the “% Remaining after 8 Days” value [7, 10] was 75%, the “% Remaining after 2 Days” value [7, 11] was 93% and the “% Remaining after 8 Days” value [7, 11] was 73%. For the same molecule, the “% Remaining after 2 Days” value [7, 12] was 29%, the “% Remaining after 8 Days” value [7, 12] was 26% and the “% Remaining after 2 Days” value [7, 13] was 70%. The “% Remaining after 8 Days” value [7, 13] was 78%, the “% Remaining after 2 Days” value ([7]; no redox agent, pH 7, 25° C.) was 100% and the “% Remaining after 8 Days” value ([7]; no redox agent, pH 7, 25° C.) was 100%. The “% Remaining after 2 Days” value ([7]; no redox agent, pH 9, 25° C.) was 100%, the “% Remaining after 8 Days” value ([7]; no redox agent, pH 9, 25° C.) was 100% and the “% Remaining after 2 Days” value ([7]; t-BHP 2 mM, pH 7, 25° C.) was 99%. For the same molecule, the “% Remaining after 8 Days” value ([7]; t-BHP 2 mM, pH 7, 25° C.) was 102%, the “% Remaining after 2 Days” value ([7]; t-BHP 2 mM, pH 9, 25° C.) was 98% and the “% Remaining after 8 Days” value ([7]; t-BHP 2 mM, pH 9, 25° C.) was 96%. The “Minimum Biocidal Concentration” value [8] was 40 ppm active and the “Minimum Biocidal Concentration” value [9] was 84 ppm active.
